Assay results taken from article PMC11822212, “High-throughput screening identifies Aurora kinase B as a critical therapeutic target for Merkel cell carcinoma” (Nature Communications, 2025).
Where a name gives a salt, the structure may show the parent alone.

What was measured:
MCC13 cells (VN-MCC) = test: qHTS cell viability (CellTiter-Glo, 72 h; primary and follow-up small molecule screen); format: cell-based, human; details: for Area under the dose-response curve (AUC) MCC13 Replicate 1 / Area under the dose-response curve (AUC) MCC13 Replicate 2 / Area under the dose-response curve (AUC) MCC13 Replicate 3: follow-up screen
MCC26 cells (VN-MCC) = test: as above; format: cell-based, human; details: for Area under the dose-response curve (AUC) MCC26 Replicate 1 / Area under the dose-response curve (AUC) MCC26 Replicate 2 / Area under the dose-response curve (AUC) MCC26 Replicate 3: follow-up screen
UISO cells (VN-MCC) = test: as above; format: cell-based, human; details: for Area under the dose-response curve (AUC) UISO Replicate 1 / Area under the dose-response curve (AUC) UISO Replicate 2 / Area under the dose-response curve (AUC) UISO Replicate 3: follow-up screen
WAGA cells (VP-MCC) = test: as above; format: cell-based, human; details: for Area under the dose-response curve (AUC) WAGA Replicate 1 / Area under the dose-response curve (AUC) WAGA Replicate 2 / Area under the dose-response curve (AUC) WAGA Replicate 3: follow-up screen
MKL-1 cells (VP-MCC) = test: as above; format: cell-based, human; details: for Area under the dose-response curve (AUC) MKL-1 Replicate 1 / Area under the dose-response curve (AUC) MKL-1 Replicate 2 / Area under the dose-response curve (AUC) MKL-1 Replicate 3: follow-up screen
MKL-2 cells (VP-MCC) = test: as above; format: cell-based, human; details: for Area under the dose-response curve (AUC) MKL-2 Replicate 1 / Area under the dose-response curve (AUC) MKL-2 Replicate 2 / Area under the dose-response curve (AUC) MKL-2 Replicate 3: follow-up screen
HACAT cells = test: qHTS cell viability (CellTiter-Glo, 72 h; primary screen), control cell line; format: cell-based, human
HEK293T cells = test: as above; format: cell-based, human
NIH-3T3 cells = test: as above; format: cell-based, mouse
CRL-7250 cells = test: as above; format: cell-based
[1] = test system: MCC cell lines (WAGA, MKL-1, MKL-2, MCC13, MCC26, UISO); test: qHTS cell viability, all six MCC cell lines as a group (mean AUC, MCC.avg); format: cell-based, human; details: mean AUC of six MCC cell lines
[2] = test system: VP-MCC cell lines (WAGA, MKL-1, MKL-2); test: qHTS cell viability, VP-MCC cell lines as a group (mean AUC, VP.MCC.avg); format: cell-based, human; details: for VP-MCC_Avg_AUC: mean AUC of VP-MCC cell lines
[3] = test system: VN-MCC cell lines (MCC13, MCC26, UISO); test: qHTS cell viability, VN-MCC cell lines as a group (mean AUC, VN.MCC.avg); format: cell-based, human; details: for VN-MCC_Avg_AUC: mean AUC of VN-MCC cell lines
[4] = test system: control cell lines (HACAT, HEK293T, CRL-7250, NIH-3T3); test: qHTS cell viability, control cell lines as a group (mean AUC, Control.avg); format: cell-based; details: mean AUC of control cell lines
[5] = test system: six MCC cell lines and four control cell lines; test: qHTS cell viability, all 10 cell lines screened; format: cell-based
[6] = MIPE library, 11-point DRC, sheet S2E
[7] = MIPE library, 11-point DRC, control cell line, sheet S2E
[8] = NPC library, qHTS dose-response AUC, MCC13
[9] = NPC library, qHTS dose-response AUC, MCC26
[10] = NPC library, qHTS dose-response AUC, UISO
[11] = NPC library, qHTS dose-response AUC, WAGA
[12] = NPC library, qHTS dose-response AUC, MKL1
[13] = NPC library, qHTS dose-response AUC, MKL2
[14] = NPC library, qHTS dose-response AUC, HACAT control
[15] = NPC library, qHTS dose-response AUC, HEK293T control
[16] = NPC library, qHTS dose-response AUC, NIH3T3 control
[17] = NPC library, qHTS dose-response AUC, CRL7250 control
[18] = NPC library, therapeutic window: Control avg AUC minus VP-MCC avg AUC
[19] = NPC library, therapeutic window: Control avg AUC minus VN-MCC avg AUC
[20] = NPC library, therapeutic window: Control avg AUC minus MCC avg AUC

For `CN1CCCC(n2nc(Cc3ccc(Cl)cc3)c3ccccc3c2=O)CC1` (stereo not drawn) [Azelastine hydrochloride], the MCC13_AUC (MCC13 cells (VN-MCC); [6]) was 451.766, the “Area under the dose-response curve (AUC) MCC13 Replicate 1” value (MCC13 cells (VN-MCC); MCC13) was 500.3 and the “Area under the dose-response curve (AUC) MCC13 Replicate 2” value (MCC13 cells (VN-MCC); MCC13) was 476.4. For the same compound, the “Area under the dose-response curve (AUC) MCC13 Replicate 3” value (MCC13 cells (VN-MCC); MCC13) was 479.3, the MCC26_AUC (MCC26 cells (VN-MCC); [6]) was 431.003 and the “Area under the dose-response curve (AUC) MCC26 Replicate 1” value (MCC26 cells (VN-MCC); MCC26) was 450.4. For the same compound, the “Area under the dose-response curve (AUC) MCC26 Replicate 2” value (MCC26 cells (VN-MCC); MCC26) was 432.6, the “Area under the dose-response curve (AUC) MCC26 Replicate 3” value (MCC26 cells (VN-MCC); MCC26) was 475.6 and the UISO_AUC (UISO cells (VN-MCC); [6]) was 426.293. For the same compound, the “Area under the dose-response curve (AUC) UISO Replicate 1” value (UISO cells (VN-MCC); UISO) was 472.1, the “Area under the dose-response curve (AUC) UISO Replicate 2” value (UISO cells (VN-MCC); UISO) was 488.6 and the “Area under the dose-response curve (AUC) UISO Replicate 3” value (UISO cells (VN-MCC); UISO) was 481.1. The WAGA_AUC (WAGA cells (VP-MCC); [6]) was 268.398, the “Area under the dose-response curve (AUC) WAGA Replicate 1” value (WAGA cells (VP-MCC); WAGA) was 515.6 and the “Area under the dose-response curve (AUC) WAGA Replicate 2” value (WAGA cells (VP-MCC); WAGA) was 481.7. The “Area under the dose-response curve (AUC) WAGA Replicate 3” value (WAGA cells (VP-MCC); WAGA) was 478.9, the MKL1_AUC (MKL-1 cells (VP-MCC); [6]) was 341.965 and the “Area under the dose-response curve (AUC) MKL-1 Replicate 1” value (MKL-1 cells (VP-MCC)) was 494.5. The “Area under the dose-response curve (AUC) MKL-1 Replicate 2” value (MKL-1 cells (VP-MCC)) was 511.5, the “Area under the dose-response curve (AUC) MKL-1 Replicate 3” value (MKL-1 cells (VP-MCC)) was 475.2 and the MKL2_AUC (MKL-2 cells (VP-MCC); [6]) was 320.643. For the same compound, the “Area under the dose-response curve (AUC) MKL-2 Replicate 1” value (MKL-2 cells (VP-MCC)) was 463.4, the “Area under the dose-response curve (AUC) MKL-2 Replicate 2” value (MKL-2 cells (VP-MCC)) was 469.5 and the “Area under the dose-response curve (AUC) MKL-2 Replicate 3” value (MKL-2 cells (VP-MCC)) was 473.5. The HACAT_AUC (HACAT cells; [7]) was 463.226, the HEK293T_AUC (HEK293T cells; [7]) was 458.798 and the NIH3T3_AUC (NIH-3T3 cells; [7]) was 471.996. For the same compound, the CRL7250_AUC (CRL-7250 cells; [7]) was 443.828, the MCC_Avg_AUC ([1]; MIPE library, sheet S2E) was 373.345 and the Control-VP-MCC ([2]; MIPE library, Control AUC minus VP-MCC AUC (therapeutic window), sheet S2E) was 149.127. It also gave a VP-MCC_Avg_AUC ([2]; MIPE library, sheet S2E) of 310.335, a Control-VN-MCC ([3]; MIPE library, Control AUC minus VN-MCC AUC (therapeutic window), sheet S2E) of 23.1078 and a VN-MCC_Avg_AUC ([3]; MIPE library, sheet S2E) of 436.354. It also gave a Control_Avg_AUC ([4]; MIPE library, sheet S2E) of 459.462 and a Control-MCC ([5]; MIPE library, Control AUC minus MCC AUC (therapeutic window), sheet S2E) of 86.1174.

Compound `N=C(N)NC(=O)c1nc(Cl)c(N)nc1N` [Amiloride] has an MCC13_AUC (MCC13 cells (VN-MCC); [8]) of 460.482, an MCC26_AUC (MCC26 cells (VN-MCC); [9]) of 436.049 and a UISO_AUC (UISO cells (VN-MCC); [10]) of 438.294. It also gave a WAGA_AUC (WAGA cells (VP-MCC); [11]) of 426.991, an MKL1_AUC (MKL-1 cells (VP-MCC); [12]) of 439.734 and an MKL2_AUC (MKL-2 cells (VP-MCC); [13]) of 417.455. It also gave an HACAT_AUC (HACAT cells; [14]) of 483.146, an HEK293T_AUC (HEK293T cells; [15]) of 497.776 and an NIH3T3_AUC (NIH-3T3 cells; [16]) of 492.231. The CRL7250_AUC (CRL-7250 cells; [17]) was 484.959, the MCC_Avg_AUC ([1]; NPC library) was 436.501 and the VP-MCC_Avg_AUC ([2]; NPC library) was 428.06. The Control-VP-MCC [2, 18] was 61.468, the VN-MCC_Avg_AUC ([3]; NPC library) was 444.942 and the Control-VN-MCC [3, 19] was 44.5863. The Control_Avg_AUC ([4]; NPC library) was 489.528 and the Control-MCC [5, 20] was 53.0271.

With `CCCCCCCCCCCCCCCC[N+](C)(C)CC` [Ethylhexadecyldimethylammonium bromide] the MCC13_AUC (MCC13 cells (VN-MCC); [8]) was 452.398, the “Area under the dose-response curve (AUC) MCC13 Replicate 1” value (MCC13 cells (VN-MCC); MCC13) was 444.8 and the “Area under the dose-response curve (AUC) MCC13 Replicate 2” value (MCC13 cells (VN-MCC); MCC13) was 473.1. For the same compound, the “Area under the dose-response curve (AUC) MCC13 Replicate 3” value (MCC13 cells (VN-MCC); MCC13) was 416.6, the MCC26_AUC (MCC26 cells (VN-MCC); [9]) was 497.964 and the “Area under the dose-response curve (AUC) MCC26 Replicate 1” value (MCC26 cells (VN-MCC); MCC26) was 420.1. The “Area under the dose-response curve (AUC) MCC26 Replicate 2” value (MCC26 cells (VN-MCC); MCC26) was 377.6, the “Area under the dose-response curve (AUC) MCC26 Replicate 3” value (MCC26 cells (VN-MCC); MCC26) was 430.8 and the UISO_AUC (UISO cells (VN-MCC); [10]) was 345.634. For the same compound, the “Area under the dose-response curve (AUC) UISO Replicate 1” value (UISO cells (VN-MCC); UISO) was 324.1, the “Area under the dose-response curve (AUC) UISO Replicate 2” value (UISO cells (VN-MCC); UISO) was 364.3 and the “Area under the dose-response curve (AUC) UISO Replicate 3” value (UISO cells (VN-MCC); UISO) was 313.9. For the same compound, the WAGA_AUC (WAGA cells (VP-MCC); [11]) was 248.495, the “Area under the dose-response curve (AUC) WAGA Replicate 1” value (WAGA cells (VP-MCC); WAGA) was 383.4 and the “Area under the dose-response curve (AUC) WAGA Replicate 2” value (WAGA cells (VP-MCC); WAGA) was 363.0. For the same compound, the “Area under the dose-response curve (AUC) WAGA Replicate 3” value (WAGA cells (VP-MCC); WAGA) was 382.5, the MKL1_AUC (MKL-1 cells (VP-MCC); [12]) was 275.727 and the “Area under the dose-response curve (AUC) MKL-1 Replicate 1” value (MKL-1 cells (VP-MCC)) was 317.9. For the same compound, the “Area under the dose-response curve (AUC) MKL-1 Replicate 2” value (MKL-1 cells (VP-MCC)) was 305.9, the “Area under the dose-response curve (AUC) MKL-1 Replicate 3” value (MKL-1 cells (VP-MCC)) was 330.7 and the MKL2_AUC (MKL-2 cells (VP-MCC); [13]) was 235.245. The “Area under the dose-response curve (AUC) MKL-2 Replicate 1” value (MKL-2 cells (VP-MCC)) was 333.8, the “Area under the dose-response curve (AUC) MKL-2 Replicate 2” value (MKL-2 cells (VP-MCC)) was 320.4 and the “Area under the dose-response curve (AUC) MKL-2 Replicate 3” value (MKL-2 cells (VP-MCC)) was 334.2. For the same compound, the HACAT_AUC (HACAT cells; [14]) was 288.244, the HEK293T_AUC (HEK293T cells; [15]) was 340.309 and the NIH3T3_AUC (NIH-3T3 cells; [16]) was 447.34. For the same compound, the CRL7250_AUC (CRL-7250 cells; [17]) was 362.003, the MCC_Avg_AUC ([1]; NPC library) was 342.577 and the VP-MCC_Avg_AUC ([2]; NPC library) was 253.156. The Control-VP-MCC [2, 18] was 106.318, the VN-MCC_Avg_AUC ([3]; NPC library) was 431.999 and the Control-VN-MCC [3, 19] was -72.525. The Control_Avg_AUC ([4]; NPC library) was 359.474 and the Control-MCC [5, 20] was 16.8967.
